Holding throughout (format): cell-based
Assay [1] relates to human cyclin D1 IRES. The assay is described as follows: Dicistronic IRES mRNA reporter assay (firefly luciferase), cyclin D1 IRES. As to conditions: for Cyclin D1 (decrease): fold decrease in PP242-induced cyclin D1 IRES activity: LN229, relative to values obtained with parent compound C11. The protocol: (§1) Western blot and quantitative RT-PCR analyses were performed as previously described (19). For Western blotting, cells or tissues were lysed in RIPA (lysis) buffer containing protease inhibitor cocktail and phosSTOP phosphatase inhibitor cocktail (Roche) and extracts resolved by SDSPAGE. Proteins were transferred to PVDF membranes and incubated with the indicated antibodies. For IRES reporter assays, the indicated mRNA reporters were cotransfected into cells with pSVβ-galactosidase to normalize for transfection efficiency as described previously (16). Cells were harvested 18 h following transfection and Renilla, firefly and β-galactosidase activities determined using the Dual-Glo Luciferase and β-galactosidase assay systems (Promega).
(§2) (B) Schematic diagrams of the dicistronic constructs used in this study. Constructs used are pRF, pRCD1F, which contains the human cyclin D1 IRES, pRmycF, containing the human c-myc IRES, pRp27F, containing the human p27Kip1 IRES and pRECMVF, containing the IRES from encephalomyocarditis virus. (C) Relative Renilla and firefly luciferase activities obtained from LN229 GBM cells transfected with the indicated constructs in the absence or presence of the inhibitor C11. The mean and +SD are shown for three independent experiments. […] (D) RNA-pull down assays utilizing biotinylated cyclin D1 or c-MYC IRES RNAs. Cytoplasmic extracts of LN229 cells treated with C11 (50 nM) as indicated were incubated with biotinylated cyclin D1 or c-MYC IRES RNAs and precipitated with streptavidin-Sepharose beads. Input and bound fractions were analyzed by immunoblotting using hnRNP A1 antibodies. […] RT-PCR measurements were performed in quadruplicate and the mean and +S.D. are shown. […] (F) Top panel, LN229 cells were treated with C11 as indicated and RT-PCR splicing analysis for Max exon 5 performed as described in the Experimental Methods section. Middle panel, LN229 cells treated with C11 (50 nM) as indicated, were lysed and immunoprecipitated using either eIF-4E or control IgG antibodies. Bound CCND1 or c-MYC RNAs were detected via RT-PCR. The mean and +S.D. are shown for three independent experiments. Bottom panel, cyclin D1 and c-MYC protein levels from the indicated GBM cell lines in the absence or presence of C11 at 24 h following treatment. C11 specifically blocks c-Myc IRES-mediated translation initiation by disrupting the ITAF hnRNP A1-IRES interaction.
(§3) Several dicistronic IRES mRNA reporter constructs were utilized, shown in FIG. 1B, in which the indicated IRES sequences were inserted within the intercistronic region. LN229 cells transiently transfected with these constructs were assayed for Renilla and firefly luciferase activities, which are readouts of cap-dependent and IRES-mediated translation initiation, respectively (16). […]

Assay [2] deals with human cyclin D1 IRES. The description is as above. The settings on record: 293T cells, 50 nM, 24 h.
Assay [3] concerns human c-myc IRES. The assay is described as follows: Dicistronic IRES mRNA reporter assay (firefly luciferase), c-myc IRES. As to conditions: for c-myc (decrease): fold decrease in PP242-induced c-MYC IRES activity: LN229, relative to values obtained with parent compound C11. As to the method:
as §1, §2, §3

Assay [4] deals with human c-myc IRES. The assay is described as above. As to conditions: 293T cells, 50 nM, 24 h.
In a further assay the test system is LN229 cells. The experiment in a line: Combination analysis with PP242 (XTT, combination index) in LN229. As to conditions: combination of PP242 and analog, CI=1.0 dose additive, CI<0.5 synergy, CI<0.3 strong synergy. The source says: Fold decrease in either PP242-induced cyclin D1 or c-MYC IRES activity in LN229 relative to values obtained with the parent compound C11 are shown for each analog. […] CI=1.0 (dose additive), CI<0.5 (synergy), CI<0.3 (strong synergy).
The structure-activity relationships (SAR) for C11 and related compounds were investigated by synthesizing and testing the analogs listed in Table 1. […] The degree of apoptotic cell death following co-treatment with analog and PP242 was also monitored.

[5] abbreviates: LN229 cells, cotreatment with rapamycin or PP242.

With `COc1ccc(CN2C(=O)C(Cl)=C(Cl)C2=O)c(OC)c1` [Compound C11, reference compound], the “Cyclin D1 (decrease): fold decrease in PP242-induced cyclin D1 IRES activity” value with human cyclin D1 IRES [1] is given as 1.0 fold. In addition, the “mTOR inhibitor-induced cyclin D1 IRES activity” value with human cyclin D1 IRES [1] (setting [5]) is given as “significantly inhibited”. The “cyclin D1 IRES activity” value with human cyclin D1 IRES [1] (LN229 cells, inhibitor alone) is “significantly inhibited”. Moreover, the “basal cyclin D1 IRES activity” value in the assay with human cyclin D1 IRES [2] is “reduced IRES activity”. Also, the “c-myc (decrease): fold decrease in PP242-induced c-MYC IRES activity” value with human c-myc IRES [3] stood at 1.0 fold. In the assay with human c-myc IRES [3] (setting [5]), the “mTOR inhibitor-induced c-MYC IRES activity” value is given as “significantly inhibited”. In addition, the “c-MYC IRES activity” value in the assay with human c-myc IRES [3] (LN229 cells, inhibitor alone) is recorded as “significantly inhibited”. The “basal c-MYC IRES activity” value in the assay with human c-myc IRES [4] is reported as “reduced IRES activity”. In the assay on LN229 cells, the “CI ED50, 1:100 (combination index)” value is reported as 0.50.
For the molecule `COc1ccc(CN2C(=O)c3ccccc3C2=O)c(OC)c1` [IRES-J007, 2-((2,4-Dimethoxyphenyl)methyl)isoindoline-1,3-dione], the “Cyclin D1 (decrease): fold decrease in PP242-induced cyclin D1 IRES activity” value in the assay on human cyclin D1 IRES [1] is given as 4.97 ± 0.13 fold. Also, the “basal cyclin D1 IRES activity” value in the assay with human cyclin D1 IRES [2] is on record as “reduced IRES activity”. The “c-myc (decrease): fold decrease in PP242-induced c-MYC IRES activity” value with human c-myc IRES [3] is listed as 6.51 ± 0.07 fold. Further, the “basal c-MYC IRES activity” value with human c-myc IRES [4] was “reduced IRES activity”. For the same molecule, the “CI ED50, 1:100 (combination index)” value with LN229 cells is 0.42.

The values above are taken from US20210220331A1, “INHIBITORS OF IRES-MEDIATED PROTEIN SYNTHESIS” (The Regents of the University of California, priority 2016, published 2021).
